The values below come from ChEMBL document CHEMBL1201862, “PubChem BioAssay data set” (2004).

Test systems include SW-620; HCT-116; UACC-62; TK-10; HOP-92; SR; NCI-H23; SK-MEL-5; UACC-257; HT-29; SK-OV-3; HL-60; CAKI-1; SN12C; SF-295; COLO 205; HCT-15; CCRF-CEM; KM12; RXF 393.
Test in all cases: inhibition of tumour cell growth, NCI panel, 48 h

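Where inhibition never reached the appropriate level, the endpoint shown equals the highest concentration tested. Otherwise, values were interpolated linearly from a five-concentration, 48-hour dose response in 96-well plates. GI50: concentration for 50% inhibition of growth.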 Activity calls are given as the source filed them. Rule as the data show it: active = GI50 up to about 1.1 µM and inactive = higher.

Consider `Clc1ccc(C(Cc2ccccc2)c2c(Cl)nc(N3CCNCC3)nc2Cl)cc1` (centres undefined), for which the GI50 is 14.5 µM (inactive) in the assay with SW-620; 8.38 µM (inactive) in the assay on HCT-116; 21 µM (inactive) in the assay on UACC-62; 17.5 µM (inactive) with TK-10; 8.57 µM (inactive) in the assay with HOP-92; 1.63 µM (inactive) in the assay on SR. Also, the GI50 was 18.2 µM (inactive) with NCI-H23; 14.7 µM (inactive) in the assay with SK-MEL-5; 15.7 µM (inactive) with UACC-257; 2.64 µM (inactive) in the assay on HT-29; 17.7 µM (inactive) with SK-OV-3; 2.26 µM (inactive) in the assay with HL-60. In addition, the GI50 with CAKI-1 is 5.13 µM (inactive); in the assay on SN12C, 15.2 µM (inactive); with SF-295, 19 µM (inactive); in the assay with COLO 205 it was 1.73 µM (inactive); in the assay on HCT-15, 4.06 µM; in the assay with CCRF-CEM it was 7.11 µM (inactive). The GI50 in the assay on KM12 is 7.89 µM (inactive).

On to `CC(C)[C@@H](C)CC[C@@H](C)C1CC=C2[C@@H]3CCC4C[C@@H](O[Si](C)(C)C(C)(C)C)CC[C@]4(C)C3CC[C@@]21C` (some centres undefined), for which the GI50 with SW-620, in the assay on HCT-116, in the assay with UACC-62, in the assay on TK-10, in the assay with SR and with SK-MEL-5 was > 100 µM (inactive) each time. Besides, the GI50 in the assay with UACC-257, in the assay on SK-OV-3, with RXF 393, with HL-60, with CAKI-1 and in the assay on SN12C was > 100 µM (inactive) each time. In addition, the GI50 in the assay with COLO 205 was > 100 µM (inactive); in the assay on HCT-15, over 100 µM; in the assay on CCRF-CEM, > 100 µM (inactive); with KM12 it was > 100 µM (inactive).

`CCOC(=O)C(=O)Nc1cc(Cl)ccc1Cl`: the GI50 in the assay with SW-620, with HCT-116, in the assay with UACC-62, with TK-10, with HOP-92 and in the assay on SR was > 100 µM (inactive) throughout. For the same compound, the GI50 in the assay on NCI-H23, with SK-MEL-5, with UACC-257, in the assay with HT-29, with SK-OV-3 and with HL-60 was > 100 µM (inactive) throughout. For the same compound, the GI50 with CAKI-1 was > 100 µM (inactive); in the assay on SN12C, > 100 µM (inactive); with SF-295, > 100 µM (inactive); in the assay on COLO 205, > 100 µM (inactive); with HCT-15, over 100 µM; in the assay on CCRF-CEM, > 100 µM (inactive). The GI50 with KM12 is > 100 µM (inactive).

`COC(=O)CCc1ccc2c(c1)[C@H](C(=O)OC)[C@@H](c1ccc(O)cc1)O2`: the GI50 was > 100 µM (inactive) in the assay on SW-620; 21.5 µM (inactive) in the assay with HCT-116; > 100 µM (inactive) in the assay with UACC-62; > 100 µM (inactive) in the assay with TK-10; > 100 µM (inactive) with HOP-92; 93.5 µM (inactive) with SR. Besides, the GI50 in the assay on NCI-H23 was 71.6 µM (inactive); in the assay with SK-MEL-5 it was 40.1 µM (inactive); in the assay with UACC-257, > 100 µM (inactive); with HT-29, > 100 µM (inactive); with SK-OV-3, > 100 µM (inactive); with HL-60 it was 90.2 µM (inactive). Further, the GI50 with CAKI-1 was > 100 µM (inactive); in the assay on SN12C it was > 100 µM (inactive); in the assay on SF-295 it was > 100 µM (inactive); in the assay with COLO 205 it was > 100 µM (inactive); with HCT-15 it was 58.9 µM; in the assay on CCRF-CEM, 59.2 µM (inactive). Moreover, the GI50 in the assay with KM12 is > 100 µM (inactive).

Take `Cc1ccc(SCC(CF)OC(C)n2cnc3c(O)nc(N)nc32)cc1` (centres undefined): the GI50 is > 100 µM (inactive) with SW-620; > 100 µM (inactive) with HCT-116; > 100 µM (inactive) in the assay with UACC-62; > 100 µM (inactive) in the assay with TK-10; > 100 µM (inactive) with HOP-92; 98.4 µM (inactive) in the assay on SR. The GI50 was 75.5 µM (inactive) in the assay with NCI-H23; 18.1 µM (inactive) in the assay on SK-MEL-5; 48.4 µM (inactive) in the assay on UACC-257; > 100 µM (inactive) in the assay with HT-29; > 100 µM (inactive) with SK-OV-3; 41.1 µM (inactive) in the assay with HL-60. Also, the GI50 in the assay with CAKI-1 was > 100 µM (inactive); with SN12C, > 100 µM (inactive); in the assay on SF-295, > 100 µM (inactive); in the assay on COLO 205, > 100 µM (inactive); in the assay on HCT-15, over 100 µM; in the assay with CCRF-CEM it was > 100 µM (inactive). In addition, the GI50 in the assay on KM12 was > 100 µM (inactive).

Consider `COc1ccccc1/N=N/c1c(-c2ccccc2)nn(C(=O)CC(=O)Nc2ccccc2Cl)c1-c1ccccc1`, for which the GI50 in the assay on SW-620, with HCT-116, with UACC-62, in the assay on TK-10, with SR and in the assay with NCI-H23 was > 100 µM (inactive) in each case. Besides, the GI50 was > 100 µM (inactive) with SK-MEL-5; > 100 µM (inactive) with UACC-257; 99.3 µM (inactive) in the assay with HT-29; > 100 µM (inactive) with SK-OV-3; 24.6 µM (inactive) in the assay with RXF 393; > 100 µM (inactive) in the assay on HL-60. The GI50 in the assay with SN12C was > 100 µM (inactive); in the assay on SF-295, > 100 µM (inactive); in the assay with COLO 205 it was > 100 µM (inactive); with HCT-15, over 100 µM; in the assay on CCRF-CEM, 77.8 µM (inactive); in the assay with KM12, > 100 µM (inactive).

On to `C1=CN2C[n+]3ccc4ccccc4c3N=C2c2ccccc21`, for which the GI50 with SW-620 was 4.02 µM (inactive); in the assay with HCT-116, 2.82 µM (inactive); in the assay on UACC-62, 1.93 µM (inactive); in the assay on TK-10 it was 15.3 µM (inactive); in the assay on HOP-92, 2.04 µM (inactive); with SR it was 1.11 µM (active). Further, the GI50 was 2.76 µM (inactive) in the assay with NCI-H23; 0.308 µM (active) with SK-MEL-5; 2.92 µM (inactive) in the assay on UACC-257; 2.45 µM (inactive) in the assay with HT-29; 12.2 µM (inactive) with SK-OV-3; 2.52 µM (inactive) in the assay on HL-60. For the same compound, the GI50 in the assay on CAKI-1 was 15 µM (inactive); in the assay on SN12C, 2.47 µM (inactive); with SF-295, 2.69 µM (inactive); in the assay on COLO 205, 1.23 µM (inactive); with HCT-15 it was 66.4 µM; in the assay with CCRF-CEM, 3.3 µM (inactive). For the same compound, the GI50 in the assay with KM12 was 1.85 µM (inactive).

As to `OCC12C=CC(C1)c1ccccc12` (centres undefined), the GI50 with SW-620, with HCT-116, with UACC-62, in the assay on TK-10, in the assay on HOP-92 and with SR was > 100 µM (inactive) throughout. Also, the GI50 in the assay on NCI-H23, in the assay with SK-MEL-5, in the assay with UACC-257, in the assay with HT-29, with SK-OV-3 and in the assay on HL-60 was > 100 µM (inactive) throughout. Also, the GI50 in the assay on CAKI-1 was > 100 µM (inactive); with SN12C it was > 100 µM (inactive); with SF-295, > 100 µM (inactive); with COLO 205, > 100 µM (inactive); with HCT-15, over 100 µM; in the assay on CCRF-CEM, > 100 µM (inactive).

Consider `NC(=O)Cc1nc2c(N)ncnc2n1C1OC(CO)C(O)C1O` (centres undefined), for which the GI50 in the assay with SW-620, with HCT-116, with UACC-62, in the assay with TK-10, in the assay with HOP-92 and in the assay on SR was > 100 µM (inactive) throughout. Also, the GI50 in the assay on NCI-H23, with SK-MEL-5, with UACC-257, with HT-29, with SK-OV-3 and with HL-60 was > 100 µM (inactive) each time. The GI50 is > 100 µM (inactive) in the assay with CAKI-1; > 100 µM (inactive) with SN12C; > 100 µM (inactive) in the assay on SF-295; > 100 µM (inactive) with COLO 205; over 100 µM in the assay with HCT-15; > 100 µM (inactive) in the assay with CCRF-CEM. Also, the GI50 with KM12 was > 100 µM (inactive).

`CC1CCCN1CCCOC(=O)c1ccc(OC2C=CCCC2)cc1` (centres undefined): the GI50 is 20.7 µM (inactive) in the assay with SW-620; 17.2 µM (inactive) in the assay with HCT-116; > 100 µM (inactive) in the assay with UACC-62; 36.9 µM (inactive) in the assay on TK-10; 28.1 µM (inactive) with SR; 25.4 µM (inactive) in the assay on NCI-H23. For the same compound, the GI50 in the assay with SK-MEL-5 was 19.2 µM (inactive); with UACC-257 it was 60.8 µM (inactive); in the assay with HT-29, 17.7 µM (inactive); with SK-OV-3 it was 56.1 µM (inactive); in the assay with RXF 393, 26.7 µM (inactive); in the assay on HL-60 it was 17.4 µM (inactive). Further, the GI50 in the assay with SN12C is 39.4 µM (inactive); with SF-295 it was 16.5 µM (inactive); in the assay on COLO 205 it was 16.6 µM (inactive); with HCT-15, 23.3 µM; in the assay with CCRF-CEM, 30.3 µM (inactive); in the assay with KM12, 38.2 µM (inactive).

Take `CC1(C)Oc2ccc3c(=O)cc(-c4ccc(F)cc4)oc3c2C1C(=O)O` (centres undefined): the GI50 with HCT-116, in the assay on UACC-62, with TK-10, with SR, in the assay on NCI-H23 and with SK-MEL-5 was > 100 µM (inactive) in each case. For the same compound, the GI50 was > 100 µM (inactive) in the assay with UACC-257; > 100 µM (inactive) in the assay with HT-29; > 100 µM (inactive) in the assay with SK-OV-3; > 100 µM (inactive) in the assay with RXF 393; 23.3 µM (inactive) with CAKI-1; > 100 µM (inactive) with SN12C. In addition, the GI50 in the assay on SF-295, in the assay on COLO 205 and with CCRF-CEM was > 100 µM (inactive) in each case.
